Experimental data published in patent publication US20200000916A1, “REGIONALLY ACTIVATED DRUG DELIVERY NANOPARTICLES” (The Regents of the University of California, priority 2013, published 2020).
“Also recorded” adds a separate entry of the source.

Test system: PTK2 kidney epithelial cells
Assay: Cellular localization by live fluorescence microscopy
Type: cell-based
Conditions: 2 μM, 2 hours incubation, before/without 365 nm light exposure; hydrochloride
Text: The intracellular localization of the DOX-PCB nanoparticles and pure DOX was studied using the PTK2 epithelial cell line. These cells were used because they are susceptible to DOX and remain flat during mitosis, allowing for enhanced visualization of the nuclear region. This visualization capability was important since one of the main therapeutic modes of action for DOX is through DNA intercalation. The DOX-PCB nanoparticles and pure DOX are both naturally fluorescent which allowed them to be easily tracked through the cell. The PTK2 cells were plated in glass bottom petri dishes (MatTek Corporation, Ashland, Mass.) and were incubated in advanced MEM Media from Gibco (Invitrogen, Grand Island, N.Y.) with 2% fetal bovine serum, nonessential amino acids, 110 mg/L sodium pyruvate, and without penicillin-streptomycin or L-Glutamine.
A 1 ml media solution of DOX-PCB nanoparticles was prepared by first adding 10×DPBS to a 4.1 μM solution of DOX-PCB nanoparticles in water to achieve a 1×DPBS concentration, and then adding the resulting solution to a phenol-red free formulation of the advanced MEM media described above to achieve a final DOX-PCB content of 2 μM. This spiked media sample was then added to the glass bottom petri dish along with PTK2 cells seeded which had the previous incubation media removed. […]

**Q.** For `COc1cccc2c1C(=O)c1c(O)c3c(c(O)c1C2=O)C[C@@](O)(C(=O)CO)C[C@@H]3O[C@H]1C[C@H](N)[C@H](O)[C@H](C)O1.Cl` [DOX, Doxorubicin hydrochloride], which intracellular localization is on record?
**A.** The intracellular localization was “strongly associate with the cell nuclei; also recorded: associate strongly with the cell nuclei”.
